Assay results reported in patent US20040247537A1, “Uv-screening peptide-flavonoid conjugates” (priority 2001, published 2004).
Where “and” joins values, the source holds several entries; their conditions need not be identical. Equal values may be shown once.

How the values were obtained:
[1] = system: skin (buttocks) of three volunteers, epidermis; test: Penetration depth into the skin (color reaction on biopsy slices); assay type: in vivo; conditions: human
Excerpt: The essential condition is the existence of a specific detection method, which can be used to visualize the presence of particular sunscreen component. In case of quercetin one can take advantage of the existence of ortho dihydroxybenzene (catechol) configuration on the benzene ring B. Different colorimetric methods for catechols have been described. We choose the reaction described in J. Invest Dermatol., 70:197, 1978, (S. Pavel et al.).
Skin penetration study were executed using the following preparations:
1. Quercetin (1%) in cremor cetomacrogolis FNA (CMC)
2. Querceti-gelatin (small molecular weight fraction) (10-20%) in CMC.
3. Quercetin-gelatin (large molecular weight fraction) (10-20%) in CMC.
4. Catechol (1%) (as a penetration marker) in CMC.
The preparations were applied to the skin (buttocks) of three volunteers. The penetration times were 30 min, 1 hour and 3 hours. After each penetration time a biopsy (4 mm) was taken after local anesthesia. The biopsy material was frozen in liquid nitrogen and kept for the further analysis.
The biopsy material were cut in consecutive slices of 8 um thick The slices were incubated in a selected solution to achieve the color characteristic of catecholic structures. The depth of penetration was measured visually and expressed as a percentage penetrated epidermis, as follows: […]

[2] = system: skin of volunteer subjects (skin types III or IV), UV-A radiation; test: UV-A protection test on volunteer subjects (MPD, SPF); assay type: in vivo, human; conditions: one value per volunteer
Procedure: The test is performed on volunteer subjects with normal skin types III (Burns moderately, tans gradually) or IV (Burns minimally; tans well). The subjects have no history of photo-sensitivity, are not using systematic medications and have not been exposed to direct sunlight for the previous 6 weeks.
Two test sites of 5×10 cm, each test site divided in 6 sub-sites, are marked on the back of the subjects between the waist line and the shoulder blades. One test site is not treated and therefor unprotected. On the other test site 100 mg sunscreen product is applied uniformly to the skin so that the amount of the UV-absorbing compound applied is about 2 mg per m2. In case of the quercetin-gelatin compound the amount applied is such that also in this case 2 mg/m2 of the linked quercetin is applied, The applied sunscreen is allowed to dry for about 15 minutes.
A series of six doses of UV-A radiation, increasing in energy is applied to each test site using a UV-A Sellas Sun 2000 (irradiance about 50 milliWatt/cm^2 at 30 cm). […]
The MPD (minimal pigmenting dose) of each test site is determined visually after 3 hours of exposure. The MPD is defined as the quantity of radiation energy required to produce the first unambiguous pigmented reaction.
The SPF (Sun protection factor) is calculated as the quotient of […].

[3] = Chelating capacity: free Fe2+ by ion chromatography; assay type: physicochemical; conditions: test samples a: 1 millimol/l FeSO4 solution mixed 1:1 with test solution, ethanol:water 1:3, 10 minutes at 37° C.; iron alone 0.50
Excerpt: (§1) The amount of free Fe^2+ and Fe^3+ can be determined by ion-chromatography.
(§2) Gelatin has a very high affinity to Dionex column material that is used in the determination of iron ions. Gelatin will not elute from the column and thereby changes the characteristics of the column so that the separation is not stable. To prevent this a solid state extraction (SPE) column is used to separate the metal ions from the gelatin matrix. After this pretreatment the sample is conservated with 10 millimolar hydrochloric acid. The sample is then injected into the ion-chromatograph. The metal-ions form a complex with the pyridine-2,6-dicarboxylic acid (PDCA). The complexed iron ions are then separated by their differences in affinity to the column material, which has as well anion as cation characteristics (mixed mode). […] The signals obtained at the retention times known for Fe^2+ and Fe^3+ are proportional to the concentrations, which are calculated from a calibration curve.
(§3) A Dionex OnGuard-RP P/N 039595 column was conditioned with 5 ml methanol and 10 ml de-ionized water. […] 5 ml of the eluate is quantitatively pipetted into a 10 ml volumetric flask and 20 mM hydrochloric acid was added up to 10.00 ml. […]
(§4) In the same way, test samples 1b, 2b, 3b and 4b were prepared with Fe2(SO4)3 instead of FeSO4. […] The amounts of free Fe^2+ or Fe^3+ were determined by the method described above.

[4] = Chelating capacity: free Fe3+ by ion chromatography; assay type: physicochemical; conditions: test samples b: Fe2(SO4)3 instead of FeSO4, mixed 1:1 with test solution, 10 minutes at 37° C.; iron alone 0.50
Excerpt: as §1, §2, §3, §4

| SMILES | Penetration depth, percentage penetrated epidermis ([1]; 30 min) [%] | Penetration depth, percentage penetrated epidermis ([1]; 1 h) [%] | Penetration depth, percentage penetrated epidermis ([1]; 3 h) [%] | MPD (minimal pigmenting dose), protected ([2]; protected test site, about 2 mg per m2 UV-absorbing compound (linked quercetin) applied, UV-A doses 33 to 8 joule/cm^2, determined visually after 3 hours) | SPF (Sun protection factor) ([2]; quotient of the MPDs of protected and unprotected skin, UV-A) | Amount of free Fe^2+ [3] [millimol per liter] | Amount of free Fe^3 [4] [millimol per liter] |
| --- | --- | --- | --- | --- | --- | --- | --- |
| Oc1ccccc1O [Catechol (1%), Catechol] | 40 | 60 | 90 | – | – | – | – |
| O=c1c(O)c(-c2ccc(O)c(O)c2)oc2cc(O)cc(O)c12 [Quercetin, quercetin] | 30 | 50 | 80 | 14 Joule/cm^2 and 19 Joule/cm^2 | 1.8 and 2.4 | 0.16 | 0.20 |
